Experimental data as given in paper PMC4122495, “Small Molecule Deubiquitinase Inhibitors Promote Macrophage Anti-Infective Capacity” (PLoS ONE, 2014).
≈ marks a conversion by molar mass, not a printed value. Entries after “also recorded” stand apart in the source; their conditions may differ. Read-outs that look alike come from different tables or passages of the source.

Key:
[1] = tested on: L. monocytogenes; experiment: L. monocytogenes intracellular growth assay in RAW264.7 macrophages; type: cell-based, Listeria monocytogenes 10403S; design: decrease in Listeria intracellular viability: concentration or dose not given beside the values; details: for EC50: Listeria monocytogenes, RAW264.7 pre-treated with varying concentrations, then infected (MOI 1), intracellular CFU at 8 h post-infection, non-linear regression; for decrease in Listeria intracellular viability: RAW264.7 pre-treated at each compound's working condition (Fig. 2B, 5B); for decrease in Listeria intracellular viability / effect on L.m. intracellular growth (in words) / Decrease intracellular listeria viability (%): 8 h post-infection; for decrease in Listeria intracellular viability / Decrease intracellular listeria viability (%): vs DMSO; for effect on L.m. intracellular growth (in words): RAW264.7 pre-treated with compound; for Decrease intracellular listeria viability (%): conditions of Figure 2B and Figure 5B, maximal effective drug concentration used
Protocol: RAW264.7 cells were cultured at an initial density of 4×10^6 cells per 24-well plate and allowed to adhere overnight. Macrophages were treated with 2.5 or 5 µM of DUB inhibitors dissolved in dimethyl sulfoxide (DMSO) for 0.5 or 1 h or with equivalent volume of DMSO (vehicle control) at 37°C. For dose-response curves, macrophages were incubated with 5, 2.5, 1 and 0.5 µM of compounds 1, 3 and 4 or 2.5, 2, 1 and 0.5 µM of compounds 2 and 9 for 0.5 h or 1 h at 37°C. DUB inhibitors were removed from cell culture prior to infection by changing the medium. Macrophages were infected with L. monocytogenes at a multiplicity of infection (MOI) of 1 for 0.5 h at 37°C. The inoculum was removed by washing infected cells three times with Dulbecco’s phosphate-buffered saline (PBS), and the cells were incubated in medium containing 10 µg/ml of gentamicin to kill extracellular bacteria for the duration of the experiment. At 8 h post-infection, cells were lysed in 1 ml 0.1% Triton X-100, serially diluted and plated on Luria-Bertani (LB) agar to enumerate the number of colony forming units (CFU). CFU were counted using the Acolyte SuperCount (Microbiology International, Frederick, MD) plate reader and software. Results were normalized to DMSO-treated cells.
Supplementary file pone.0104096.s001.tif: Figure S1 Dose-response curves for selected compounds. RAW264.7 cells were incubated with DMSO (equivalent volume) or the varying concentrations of WP1130-derivatives for 0.5 h (compounds 1, 2, 4 and 9) or 1 h (compound 3). After incubation, the medium was removed, and cells were infected at 37°C for 0.5 h at an MOI of 1 with L. monocytogenes in the absence of additional drugs. Following the 0.5 h infection, cells were washed and gentamycin (10 µg/ml) was added to kill extracellular bacteria. Intracellular bacteria were enumerated at 8 h post-infection. The data represent percent of Listeria intracellular growth compared to DMSO-treated cells from three independent experiments performed in triplicate. Non-linear regression curves were performed using the GraphPad Prism software. (TIF) Click here for additional data file.

[2] = tested on: L. monocytogenes; experiment: Bacterial growth curve in BHI broth culture; type: cell-based, Listeria monocytogenes 10403S; details: 5 µM in BHI broth; for effect on Listeria growth in broth culture: absence of host cells, up to 8 h
Protocol: For bacterial growth curve in broth culture, an overnight culture of L. monocytogenes was back-diluted 1∶50 into BHI broth in the presence of 5 µM of compounds 1 to 4, 2.5 µM of compound 9 or equivalent volume of DMSO and incubated statically at 30°C for up to 8 h. At indicated time points (0, 2, 4, 6 and 8 h), a 50 µl-aliquot of bacteria was serially diluted and plated on LB agar to determine the number of CFU. To test the bactericidal properties of compound 9, an overnight culture of L. monocytogenes was back-diluted 1∶50 into BHI broth and allowed to grow at 37°C with shaking until an optical density at 600 nm (OD600) of ∼0.6–0.7 was obtained. Bacteria were then exposed to 1, 2.5 or 5 µM of compound 9 or equivalent volume of DMSO for 2 h at 4°C. After incubation, bacteria were serially diluted and plated on LB agar to determine CFU.

[3] = tested on: RAW264.7 cells; experiment: WST-1 cell viability assay, conditions mimicking the bacterial infection protocol; type: cell-based, murine; details: then 8 h
Protocol: For cell viability assays in conditions that mimicked the bacterial infection protocol, RAW264.7 cells were cultured at an initial density of 4×10^6 cells per 96-well plate. Cells were treated with 2.5 or 5 µM DUB inhibitors dissolved in DMSO for 0.5 h or 1 h or with equivalent volume of DMSO. DUB inhibitors were removed after treatment by washing three times with PBS, and cells were incubated in culture media for 6.5 h at 37°C. The WST-1 reagent (Roche, San Francisco, CA), which measures mitochondrial dehydrogenase activity, was diluted 1 in 10 in media and cells were incubated at 37°C for an additional 1.5 h. The optical density at 440 nm (OD440) and 600 nm (OD600) was determined and results were normalized to DMSO-treated cells.

[4] = Aqueous kinetic solubility; type: physicochemical; details: aqueous (not further specified)
[5] = tested on: L. monocytogenes; design: method as in PMID 21911458; details: absence of host cells; cited from earlier work
[6] = tested on: MNV-1; design: method as in PMID 22792064; details: pre-treatment of RAW264.7 cells; cited from earlier work
[7] = tested on: USP9x; design: method as in Donato, N. J., manuscript in preparation; details: cell-based assay; ref Donato, N. J., manuscript in preparation; read-out: IC50 against USP9x; cited from earlier work

SMILES | EC50 [1] [nM] | decrease in Listeria intracellular viability [1] [%] | effect on L.m. intracellular growth (in words) [1] | Decrease intracellular listeria viability (%) [1] [%] | effect on Listeria growth in broth culture [2] | cellular toxicity (WST-1 viability) ([3]; 5 µM, 1 h pre-treatment) | other results
CCC[C@H](NC(=O)/C(C#N)=C/c1cccc(Cl)n1)c1ccccc1 [Compound 1] | 1100 | 54.7 | Decrease L.m. intracellular growth | 54.7 | slight decrease in growth rate | – | effect on total CFU per ml by 8 h in broth culture [2]: without affecting the total number of colony forming unit (CFU) per ml by 8 h
CCC[C@@H](NC(=O)/C(C#N)=C/c1cccc(Br)n1)c1ccccc1 [Compound 2] | 1760 | 44 | Decrease L.m. intracellular growth | 44.0 | slight decrease in growth rate | – | cellular toxicity (WST-1 viability) ([3]; pre-treatment 0.5 or 1 h, led to working concentration of 2.5 µM for 0.5 h): slight increase in toxicity; effect on total CFU per ml by 8 h in broth culture [2]: without affecting the total number of colony forming unit (CFU) per ml by 8 h
CCCC(NC(=O)/C(C#N)=C/c1cccc(Br)n1)c1ccc(OCOC)cc1 (centres unmarked) [Compound 3] | – | 39.9 | Decrease L.m. intracellular growth | 39.9 | slight decrease in the in vitro growth | no significant toxicity | –
CCC[C@H](NC(=O)/C(C#N)=C/c1cccc(F)n1)c1ccccc1 [Compound 4] | 2880 | 29.2 | Decrease L.m. intracellular growth | 29.2 | no effect | – | –
CCC(NC(=O)/C(C#N)=C/c1cccc(Br)n1)c1ccc(O)cc1 (centres unmarked) [Compound 5] | – | 25.4 | Decrease L.m. intracellular growth | – | – | no significant toxicity | –
CCCC(NC(=O)/C(C#N)=C/c1cccc(F)n1)c1ccc(OCCN2CCOCC2)cc1 (centres unmarked) [Compound 6] | – | – | No effect on L.m. intracellular growth | – | – | no significant toxicity | effect on L.m. intracellular growth (in words) ([1]; listed as compound 6): no significant effect on Listeria intracellular growth; also recorded: complete loss of activity
CCCC(NC(=O)/C(C#N)=C/c1cccnc1F)c1ccc(OCCN2CCOCC2)cc1 (centres unmarked) [Compound 7] | – | – | No effect on L.m. intracellular growth | – | – | no significant toxicity | effect on L.m. intracellular growth (in words) ([1]; listed as compound 7): no significant effect on Listeria intracellular growth; also recorded: complete loss of activity
CCC[C@H](NC(=O)/C=C/c1cccc(Br)n1)c1ccccc1 [Compound 8] | – | – | No effect on L.m. intracellular growth | – | – | no significant toxicity | effect on L.m. intracellular growth (in words) ([1]; listed as compound 8): no significant effect on Listeria intracellular growth; also recorded: no activity
CCC[C@H](NC(=O)/C(C#N)=C/c1cccc(Br)n1)c1ccccc1 [WP1130, reference compound] | – | 69.9 | Decrease L.m. intracellular growth | – | – | – | solubility kinetic [4]: 3.2 µM (≈ 1.23 µg/mL); effect on Listeria growth in broth culture [5]: no effect; average decrease in MNV-1 titers compared to DMSO vehicle control [6]: 2.0 log; IC50 [7]: 6600 nM
